Tests used:
VP16-PPARδ / GAL4-SRC-1 = molecular target: T1, VP16-PPARδ / GAL4-SRC-1 (Homo sapiens, UniProt Q03181); test: mammalian two-hybrid assay, VP16-PPARδ and coactivator GAL4-SRC-1; type: cell-based; conditions: 30 μM fatty acids, 100 nM GW1516, HEK293 cells, Fig. 3A
T1 construct: expressed in transfected cells; host or cells: HEK293
T1 sequence (Q03181 1-441): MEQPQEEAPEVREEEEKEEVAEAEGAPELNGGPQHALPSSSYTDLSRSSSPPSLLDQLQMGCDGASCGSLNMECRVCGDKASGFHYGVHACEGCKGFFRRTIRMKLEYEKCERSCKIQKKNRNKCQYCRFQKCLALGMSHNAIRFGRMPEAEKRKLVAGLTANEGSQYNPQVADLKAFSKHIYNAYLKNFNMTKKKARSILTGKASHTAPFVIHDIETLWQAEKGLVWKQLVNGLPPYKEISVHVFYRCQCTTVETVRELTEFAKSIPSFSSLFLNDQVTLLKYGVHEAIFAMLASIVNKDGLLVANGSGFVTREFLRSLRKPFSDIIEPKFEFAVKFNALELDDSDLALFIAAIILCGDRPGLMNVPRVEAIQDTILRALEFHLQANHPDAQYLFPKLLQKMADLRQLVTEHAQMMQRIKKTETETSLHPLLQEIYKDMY
T1 sequence (Q15788 595-771 partner limits assumed): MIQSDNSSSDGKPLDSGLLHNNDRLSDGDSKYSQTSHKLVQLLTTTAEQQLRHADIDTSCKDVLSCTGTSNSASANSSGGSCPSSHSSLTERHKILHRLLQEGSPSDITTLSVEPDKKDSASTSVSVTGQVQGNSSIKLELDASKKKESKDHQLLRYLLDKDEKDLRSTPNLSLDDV

VP16-PPARα / GAL4-SRC-1 = molecular target: T2, VP16-PPARα / GAL4-SRC-1 (Homo sapiens, UniProt Q07869); test: mammalian two-hybrid assay, VP16-PPARα and coactivator GAL4-SRC-1; type: cell-based; conditions: 30 μM fatty acids, 1 μM GW7647, HEK293 cells, Fig. 3B
T2 construct: expressed in transfected cells; host or cells: HEK293
T2 sequence (Q07869 1-468): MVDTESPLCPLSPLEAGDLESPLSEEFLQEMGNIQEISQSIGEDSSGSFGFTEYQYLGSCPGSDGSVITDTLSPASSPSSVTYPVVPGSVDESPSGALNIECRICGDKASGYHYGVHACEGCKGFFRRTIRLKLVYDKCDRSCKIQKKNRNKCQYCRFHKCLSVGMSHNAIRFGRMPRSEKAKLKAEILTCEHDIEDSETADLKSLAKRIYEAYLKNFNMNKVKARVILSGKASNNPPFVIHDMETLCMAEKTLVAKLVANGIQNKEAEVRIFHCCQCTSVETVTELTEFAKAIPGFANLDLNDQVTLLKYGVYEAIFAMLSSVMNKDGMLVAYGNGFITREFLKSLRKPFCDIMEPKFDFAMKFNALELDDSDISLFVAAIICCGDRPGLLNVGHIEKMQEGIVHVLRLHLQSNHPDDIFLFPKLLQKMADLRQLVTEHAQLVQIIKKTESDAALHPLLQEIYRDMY
T2 sequence (Q15788 595-771 partner limits assumed): T1 sequence (Q15788 595-771 partner limits assumed)

full-length PPARα = full-length PPARα (Homo sapiens, UniProt Q07869); conditions: PPRE luciferase reporter, HEK293 cells, Fig. 1C
VP16-PPARδ / GAL4-NCoR = molecular target: T3, VP16-PPARδ / GAL4-NCoR (Homo sapiens, UniProt Q03181); test: mammalian two-hybrid assay, VP16-PPARδ and corepressor NCoR; type: cell-based; conditions: 30 μM fatty acids, HEK293 cells, Fig. 3C
T3 construct: expressed in transfected cells; host or cells: HEK293
T3 sequence (Q03181 1-441): T1 sequence (Q03181 1-441)

VP16-PPARα / GAL4-NCoR = molecular target: T4, VP16-PPARα / GAL4-NCoR (Homo sapiens, UniProt Q07869); test: mammalian two-hybrid assay, VP16-PPARα and corepressor NCoR; type: cell-based; conditions: 30 μM fatty acids, HEK293 cells, Fig. 3D
T4 construct: expressed in transfected cells; host or cells: HEK293
T4 sequence (Q07869 1-468): T2 sequence (Q07869 1-468)

[1] = test system: human intestinal organoids; test: PPARδ target gene mRNA expression in human intestinal organoids (RT-qPCR); type: cell-based; conditions: 1 μM GW1516 or 30 μM fatty acids for 24 h

| SMILES | recruitment of coactivator SRC-1 to PPARδ (VP16-PPARδ / GAL4-SRC-1) | recruitment of coactivator SRC-1 to PPARα (VP16-PPARα / GAL4-SRC-1) | transactivation of full-length PPARα (in words) (full-length PPARα) | interaction between PPARδ and corepressor NCoR (VP16-PPARδ / GAL4-NCoR) | interaction between PPARα and corepressor NCoR (VP16-PPARα / GAL4-NCoR) | expression of PPARδ target genes (CPT1A, HMGCS2, PDK4, ACSL1) [1] |
| --- | --- | --- | --- | --- | --- | --- |
| CCCCC/C=C\C/C=C\C/C=C\CCCCC(=O)O [GLA, γ-linolenic acid, reference compound] | not | not | activated almost equally |  |  |  |
| CCCCCC(O)CCC=CCC=CCCCCC(=O)O (stereo not drawn) [γHYD, 13-hydroxy-cis-6,cis-9-octadecadienoic acid] | induced coactivator-recruitment | induced coactivator-recruitment |  | reduced the interaction | reduced the interaction | increased the expression of PPARδ target genes |
| CCCCCC(=O)CCC=CCC=CCCCCC(=O)O [γKetoD, 13-oxo-cis-6,cis-9-octadecadienoic acid] | induced coactivator-recruitment | induced coactivator-recruitment |  | reduced the interaction | reduced the interaction | increased the expression of PPARδ target genes |
